Assays:
LATS1 = LATS1 (Homo sapiens (Human), UniProt O95835); experiment: LATS1 biochemical assay (Table 1A, Compound Examples 1-290; method in the earlier part)
[1] = system: Phospho-YAP (Ser127) in JHH-5 cells; experiment: pYAP HTRF Assay (JHH-5 cells); assay type: cell-based; details: 2 hours
Procedure: Briefly, JHH-5 cells are suspended at 0.48×10^6 cells/ml in William's E medium without phenol-red (Thermo Fisher Scientific Gibco catalog number A1217601) supplemented with 10% (v/v) heat-inactivated fetal bovine serum (Thermo Fisher Scientific Gibco catalog number 16140071) and penicillin-streptomycin at 100 U/ml each (Thermo Fisher Scientific Gibco catalog number 15140122). Cells are dispensed into 384well clear bottom culture plates (50 ul/well, at 24000 cells per well, Greiner catalog number 781091), and incubated for 24 hours in a cell culture incubator at 37° C. Test compounds are transferred into culture plates containing JHH-5 cells using an Echo550 (Labcyte) acoustic dispenser (50 nl/well), followed by incubation for 2 hours at 37° C. Lysis buffer (part of CisBio kit catalog number 64YAPPEI) is added to the assay plates as a four-fold concentrate (corresponding to 16 ul/well) and incubated for 30 minutes at room temperature with agitation. Lysate is transferred from culture plates into white low-volume 384well assay plates (12 ul/well, Greiner catalog number 784075), followed by the addition of 3 ul/well of detection antibodies (part of CisBio kit catalog number 64YAPPEI: 1:40 dilution of each pYAP d2 antibody and pYAP cryptate antibody stocks). The plates are sealed and incubated overnight (18 hours) at room temperature protected from light. Plates are read on an EnVision plate reader (Perkin Elmer) at emission wavelengths of 665 nm and 620 nm. The HTRF signal ratio x per well is calculated as [x=Signal(665 nm)/Signal(620 nm)×10000] as specified in the manufacturer's protocol.

[2] = system: Phospho-YAP (SER127) in HaCaT cells; experiment: pYAP HTRF Assay (HaCaT Cells); assay type: cell-based, human; details: Homo sapiens, 2 hours
Method in brief: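 HaCaT cells at 5500 cells/well were cultured 48 hours at 37° C, then treated with compound for 2 hours. Phospho-YAP (Ser127) was detected by HTRF after an overnight (20 hrs) room-temperature incubation, read as the 665 nm/620 nm ratio.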

[3] = system: YAP nuclear translocation in HaCaT cells; experiment: YAP Translocation Assay (HaCaT Cells); assay type: cell-based, human; details: Homo sapiens, 24 hours
Method in brief: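 HaCaT cells (20,000/well) in DMEM + 10% FBS were plated overnight at 37° C, then exposed to compound for 24 h at 37° C. Cells were fixed with PFA, permeabilized with 0.1% Triton/1.5% BSA and imaged by high-content imaging.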

LATS1, sequence (O95835 whole entry, looked up): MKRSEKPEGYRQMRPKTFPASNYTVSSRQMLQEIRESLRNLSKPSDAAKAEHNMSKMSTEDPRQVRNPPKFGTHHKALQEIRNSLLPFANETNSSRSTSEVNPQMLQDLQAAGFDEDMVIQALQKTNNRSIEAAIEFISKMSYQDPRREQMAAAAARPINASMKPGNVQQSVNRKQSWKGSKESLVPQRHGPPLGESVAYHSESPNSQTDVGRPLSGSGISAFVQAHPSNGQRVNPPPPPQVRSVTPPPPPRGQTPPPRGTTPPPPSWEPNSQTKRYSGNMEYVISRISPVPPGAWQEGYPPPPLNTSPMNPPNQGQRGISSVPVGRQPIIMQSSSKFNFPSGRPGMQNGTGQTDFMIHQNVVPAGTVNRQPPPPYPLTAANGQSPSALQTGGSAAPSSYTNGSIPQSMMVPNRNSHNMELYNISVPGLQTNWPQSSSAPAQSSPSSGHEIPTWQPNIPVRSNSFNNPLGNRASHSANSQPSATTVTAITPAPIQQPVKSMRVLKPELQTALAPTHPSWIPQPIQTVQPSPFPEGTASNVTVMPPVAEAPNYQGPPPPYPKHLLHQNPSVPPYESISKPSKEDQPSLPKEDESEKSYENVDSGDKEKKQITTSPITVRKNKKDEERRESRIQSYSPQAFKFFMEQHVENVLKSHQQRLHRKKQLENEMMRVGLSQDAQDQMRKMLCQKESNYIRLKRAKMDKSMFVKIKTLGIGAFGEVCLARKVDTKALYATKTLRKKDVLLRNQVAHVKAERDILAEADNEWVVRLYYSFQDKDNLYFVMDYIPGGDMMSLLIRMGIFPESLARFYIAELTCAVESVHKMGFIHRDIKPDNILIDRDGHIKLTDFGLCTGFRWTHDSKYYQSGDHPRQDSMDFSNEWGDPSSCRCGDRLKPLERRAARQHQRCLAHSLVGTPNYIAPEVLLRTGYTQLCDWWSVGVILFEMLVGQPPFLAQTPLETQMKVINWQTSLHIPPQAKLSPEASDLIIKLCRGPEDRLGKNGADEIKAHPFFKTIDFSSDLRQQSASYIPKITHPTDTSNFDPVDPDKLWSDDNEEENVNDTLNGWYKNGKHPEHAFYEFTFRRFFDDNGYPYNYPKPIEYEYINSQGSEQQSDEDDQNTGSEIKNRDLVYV
LATS1, sequence (Q7L9L4 whole entry partner, looked up): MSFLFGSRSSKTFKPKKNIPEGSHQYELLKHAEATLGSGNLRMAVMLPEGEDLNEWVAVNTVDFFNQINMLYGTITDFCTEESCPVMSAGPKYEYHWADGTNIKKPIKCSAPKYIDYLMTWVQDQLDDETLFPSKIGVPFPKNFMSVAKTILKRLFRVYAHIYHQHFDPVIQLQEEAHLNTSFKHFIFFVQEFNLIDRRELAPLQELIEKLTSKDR

Compound | IC50 (LATS1) | IC50 [1] | IC50 [2] | EC50 [3]
CC(C)(Cc1c[nH]c2ccccc12)Nc1nc(-c2ccncc2)nc2cnccc12 [Example 79, N-[1-(1H-indol-3-yl)-2-methylpropan-2-yl]-2-(pyridin-4-yl)pyrido[3,4-d]pyrimidin-4-amine] | 11 nM | 2100 nM | 765 nM | 3870 nM
CC(Nc1nc(-c2ccncc2)nc2cnccc12)(C(=O)O)C(F)(F)F (stereo not shown) [Example 84, 3,3,3-trifluoro-2-methyl-2-{[2-(pyridin-4-yl)pyrido[3,4-d]pyrimidin-4-yl]amino}propanoic acid] | 21 nM | > 10000 nM | 65200 nM | > 20000 nM
OCCNc1nc(-c2ccncc2)nc2cnccc12 [Example 85, 2-{[2-(pyridin-4-yl)pyrido[3,4-d]pyrimidin-4-yl]amino}ethan-1-ol] | 25 nM | > 10000 nM | 31000 nM | 9810 nM
CCC(C)(C)Nc1nc(-c2ccncc2Cl)nc2cnccc12 [Example 118, 2-(3-chloropyridin-4-yl)-N-(2-methylbutan-2-yl)pyrido[3,4-d]pyrimidin-4-amine] | 5 nM | 4000 nM | 2050 nM | 5010 nM
CC(C)N(C)c1nc(-c2ccncc2F)nc2cnccc12 [Example 122, 2-(3-fluoropyridin-4-yl)-N-methyl-N-(propan-2-yl)pyrido[3,4-d]pyrimidin-4-amine] | 15 nM | 8000 nM | 7400 nM | 5800 nM
C[C@H](N(C)c1nc(-c2ccncc2F)nc2cnccc12)C(F)(F)F [Example 136, 2-(3-fluoropyridin-4-yl)-N-methyl-N-[(2S)-1,1,1-trifluoropropan-2-yl]pyrido[3,4-d]pyrimidin-4-amine] | 2 nM | 1300 nM | 1140 nM | 2960 nM
Cc1cnccc1-c1nc(NC(C)(C)C(F)(F)F)c2ccncc2n1 [Example 157, 2-(3-methylpyridin-4-yl)-N-(1,1,1-trifluoro-2-methylpropan-2-yl)pyrido[3,4-d]pyrimidin-4-amine] | 6 nM | 9200 nM | 4050 nM | 3780 nM
COCCC(C)(C)Nc1cc(-c2ccncc2)nc2cnccc12 [Example 254, N-(4-methoxy-2-methylbutan-2-yl)-2-(pyridin-4-yl)-1,7-naphthyridin-4-amine] | 5 nM | 1300 nM | 2910 nM | 4630 nM
CC(C)OCC(C)(C)Nc1cc(-c2ccncc2)nc2cnccc12 [Example 255, N-[2-methyl-1-(propan-2-yloxy)propan-2-yl]-2-(pyridin-4-yl)-1,7-naphthyridin-4-amine] | 8 nM | 7100 nM | 3180 nM | 5390 nM
CC[C@H](C)Nc1cc(-c2ccncc2)nc2cnccc12 [Example 256, N-[(2S)-butan-2-yl]-2-(pyridin-4-yl)-1,7-naphthyridin-4-amine] | 8 nM | > 10000 nM | 11100 nM | 15600 nM
CC(C)(O)CC(C)(C)Nc1cc(-c2ccncc2)nc2cnccc12 [Example 263, 2,4-dimethyl-4-{[2-(pyridin-4-yl)-1,7-naphthyridin-4-yl]amino}pentan-2-ol] | 7 nM | > 10000 nM | 3220 nM | 5990 nM
CN(C)CCC(C)(C)Nc1cc(-c2ccncc2)nc2cnccc12 [Example 265, dimethyl(3-methyl-3-{[2-(pyridin-4-yl)-1,7-naphthyridin-4-yl]amino}butyl)amine] | 8 nM | > 10000 nM | 22300 nM | > 20000 nM
CC(C)(O)COCC(C)(C)Nc1cc(-c2ccncc2)nc2cnccc12 [Example 267, 2-methyl-1-(2-methyl-2-{[2-(pyridin-4-yl)-1,7-naphthyridin-4-yl]amino}propoxy)propan-2-ol] | 13 nM | 5900 nM | 7190 nM | 9750 nM
CC(C)(C)Nc1cc(-c2ccncn2)nc2cnccc12 [Example 270, N-tert-butyl-2-(pyrimidin-4-yl)-1,7-naphthyridin-4-amine] | 2 nM | 800 nM | 423 nM | 873 nM

The remaining compounds from weak to strong by IC50 (LATS1), led by results:

IC50 (LATS1) | IC50 [1] | Compound | IC50 [2] | EC50 [3]
4 nM | 4600 nM | CC(C)(C)CC(C)(C)Nc1nc(-c2ccncc2)nc2cnccc12 [Example 72, 2-(pyridin-4-yl)-N-(2,4,4-trimethylpentan-2-yl)pyrido[3,4-d]pyrimidin-4-amine] | 1170 nM | 3650 nM
4 nM | > 10000 nM | Cc1cnccc1-c1nc(NC(C)(C)C)c2ccncc2n1 [Example 117, N-tert-butyl-2-(3-methylpyridin-4-yl)pyrido[3,4-d]pyrimidin-4-amine] | 2310 nM | 4470 nM
4 nM | 2200 nM | Cc1n[nH]cc1-c1nc(NC(C)(C)CC(C)(C)O)c2ccncc2n1 [Example 140, 2,4-dimethyl-4-{[2-(3-methyl-1H-pyrazol-4-yl)pyrido[3,4-d]pyrimidin-4-yl]amino}pentan-2-ol] | 1240 nM | 2260 nM
4 nM | 6500 nM | Cn1nccc1-c1nc(NC(C)(C)C)c2ccncc2n1 [Example 184, N-tert-butyl-2-(1-methyl-1H-pyrazol-5-yl)pyrido[3,4-d]pyrimidin-4-amine] | 2510 nM | 2810 nM
4 nM | 1500 nM | CC(C)(C)Nc1nc(-c2ccncc2)nc2cncc(Cl)c12 [Example 251, N-(tert-butyl)-5-chloro-2-(pyridin-4-yl)pyrido[3,4-d]pyrimidin-4-amine] | 1960 nM | 10900 nM
3 nM | 2200 nM | CC(C)(C)Nc1nc(-c2ccncc2Cl)nc2cnccc12 [Example 116, N-tert-butyl-2-(3-chloropyridin-4-yl)pyrido[3,4-d]pyrimidin-4-amine] | 782 nM | 2180 nM
2 nM | 1500 nM | CC(C)(CN)Nc1nc(-c2ccncc2)nc2cnccc12 [Example 110, N-(1-amino-2-methylpropan-2-yl)-2-(pyridin-4-yl)pyrido[3,4-d]pyrimidin-4-amine] | 2970 nM | 15300 nM
2 nM | 3200 nM | CC(C)(C)Nc1nc(-c2ccnc(N)c2)nc2cnccc12 [Example 112, 4-[4-(tert-butylamino)pyrido[3,4-d]pyrimidin-2-yl]pyridin-2-amine] | 1210 nM | 3520 nM
2 nM | 3400 nM | CC(C)(C)Nc1nc(-c2c[nH]nc2C(F)(F)F)nc2cnccc12 [Example 115, N-tert-butyl-2-[3-(trifluoromethyl)-1H-pyrazol-4-yl]pyrido[3,4-d]pyrimidin-4-amine] | 1050 nM | 1660 nM
1 nM | 5700 nM | CC1(Nc2nc(-c3ccncc3)nc3cnccc23)CC1 [Example 99, N-(1-methylcyclopropyl)-2-(pyridin-4-yl)pyrido[3,4-d]pyrimidin-4-amine] | 113 nM | 606 nM
1 nM | 1000 nM | CC(C)(Nc1nc(-c2ccncc2F)nc2cnccc12)C(F)(F)F [Example 134, 2-(3-fluoropyridin-4-yl)-N-(1,1,1-trifluoro-2-methylpropan-2-yl)pyrido[3,4-d]pyrimidin-4-amine] | 539 nM | 1190 nM
1 nM | 2600 nM | CCCNc1nc(-c2c[nH]c3ncccc23)nc2cnccc12 [Example 155, N-propyl-2-{1H-pyrrolo[2,3-b]pyridin-3-yl}pyrido[3,4-d]pyrimidin-4-amine] | 1580 nM | 1050 nM
1 nM | 1300 nM | CC1(Nc2nc(-c3ccncc3)nc3c(Cl)nccc23)CC1 [Example 198, 8-chloro-N-(1-methylcyclopropyl)-2-(pyridin-4-yl)pyrido[3,4-d]pyrimidin-4-amine] | 2180 nM | 3230 nM
1 nM | 800 nM | Cc1n[nH]cc1-c1cc(NC(C)(C)C)c2ccncc2n1 [Example 269, N-tert-butyl-2-(3-methyl-1H-pyrazol-4-yl)-1,7-naphthyridin-4-amine] | 294 nM | 438 nM
